Measurements: patent US8741836B2, “Polypeptides” (Novo Nordisk A/S, priority 2011, dated 2014)
Starred links: 1 amine or outer side, 2 acyl side, 3 side chain; linkers in the order of their positions; H or OH if unused. Positions of bridges follow the written chain, without caps; N, C: chain ends. Residues, ends and D or L forms follow the SMILES beside them. *: point of attachment. C20 diacid = O=C(O)CCCCCCCCCCCCCCCCCCC(=O)*; C18 diacid = O=C(O)CCCCCCCCCCCCCCCCC(=O)*; γGlu = O=C(O)[C@H](CCC(=O)[*:2])N[*:1]

System: ad libitum fed rat
Experiment: Assay (I) efficacy testing on appetite (food intake) using an ad libitum fed rat model
Type: in vivo, Sprague Dawley (SD) rats
Text: In the following examples reference is made to the following Assays: • Assay (I)—Experimental protocol for efficacy testing on appetite using an ad libitum fed rat model • ASSAY (II)a—Functional assay—Human calcitonin and amylin receptor assay • ASSAY (II)b—Functional assay—Rat calcitonin and rat amylin receptor assays • ASSAY (III)—ThT fibrillation assays for the assessment of physical stability of protein formulations • ASSAY (IV)—Determination of solubility • ASSAY (V)—Determination of binding to the human amylin receptor • ASSAY (VI)—Determination of the binding to the rat amylin receptor • ASSAY (VII)—Determination of binding to the human calcitonin receptor • ASSAY (VIII)—Determination of binding to the rat calcitonin receptor • ASSAY (IX)—pK—Determination of T½ in mini-pig • ASSAY (X)—pK—Determination of T½ in rat Assay (I)—Experimental protocol for Efficacy Testing on Appetite Using an Ad Libitum Fed Rat Model
Sprague Dawley (SD) rats from Taconic Europe, Denmark are used for the experiments. The rats have a body weight 200-250 g at the start of experiment. The rats arrive at least 10-14 days before start of experiment to allow acclimatization to experimental settings. During this period the animals are handled at least 2 times. After arrival rats are housed individually for one week in a reversed light/dark phase (meaning that lights are off during daytime and on during nighttime) […]. Since rats are normally active and eat their major part of their daily food intake during the dark period, rats are dosed in the morning right before lights are turned off. This set-up results in the lowest data variation and highest test sensitivity. The experiment is conducted in the rats' home cages and rats have free access to food and water throughout the acclimatization period and the experiment period. Each dose of derivative is tested in a group of 5-8 rats. A vehicle group of 6-8 rats is included in each set of testing. Rats are dosed once according to body weight with a 0.01-3 mg/kg solution administered intraperitoneally (ip), orally (po) or subcutaneously (sc). The time of dosing is recorded for each group. After dosing, the rats are returned to their home cages, where they then have access to food and water. The food consumption is recorded individually continuously by on-line registration or manually every hour for 7 hours, and then after 24 h and sometimes 48 h. At the end of the experimental session, the animals are euthanised.
The individual data are recorded in Microsoft excel sheets. Outliers are excluded after applying the Grubbs statistical evaluation test for outliers, and the result is presented graphically using the GraphPad Prism program.

Structure (SMILES)	Food intake reduction 0-24 h 3 nmol/kg (%) (0-24 h)	Food intake reduction 24-48 h 3 nmol/kg (%) (24-48 h)	Food intake reduction 0-24 h 30 nmol/kg (%) (30 nmol/kg, 0-24 h)	Food intake reduction 24-48 h 30 nmol/kg (%) (30 nmol/kg, 24-48 h)
CC[C@H](C)[C@H](NC(=O)[C@@H]1CCCN1C(=O)CNC(=O)[C@H](Cc1ccccc1)NC(=O)[C@H](CC(N)=O)NC(=O)[C@H](CC(N)=O)NC(=O)[C@H](CO)NC(=O)[C@H](CO)NC(=O)[C@H](Cc1c[nH]cn1)NC(=O)[C@H](Cc1c[nH]cn1)NC(=O)[C@H](CC(C)C)NC(=O)[C@H](Cc1ccccc1)NC(=O)[C@H](CCC(=O)O)NC(=O)[C@H](C)NC(=O)[C@H](CC(C)C)NC(=O)[C@H](CCCNC(=N)N)NC(=O)[C@H](CCC(N)=O)NC(=O)[C@@H](NC(=O)[C@H](C)NC(=O)[C@@H]1CSSC[C@H](NC(=O)[C@H](CCCCN)NC(=O)[C@H](CCC(=O)O)NC(=O)CC[C@H](NC(=O)CCCCCCCCCCCCCCCCCCC(=O)O)C(=O)O)C(=O)N[C@@H](CC(N)=O)C(=O)N[C@@H]([C@@H](C)O)C(=O)N[C@@H](C)C(=O)N[C@@H]([C@@H](C)O)C(=O)N1)[C@@H](C)O)C(=O)N[C@@H](CC(C)C)C(=O)N1CCC[C@H]1C(=O)N1CCC[C@H]1C(=O)N[C@H](C(=O)N[C@@H](CC(N)=O)C(=O)N[C@H](C(=O)NCC(=O)N[C@@H](CO)C(=O)N[C@@H](Cc1c[nH]cn1)C(=O)N[C@H](C(=O)N[C@@H](Cc1ccc(O)cc1)C(N)=O)[C@@H](C)O)C(C)C)[C@@H](C)O [Example 56, N-alpha-[(S)-4-Carboxy-4-(19-carboxynonadecanoylamino)butyryl]-Glu-[Glu14,His17,His35]-pramlintide] ({C20 diacid-γGlu}-EKCNTATCATQRLAEFLHHSSNNFGPILPPTNVGSHTY-NH2; disulfide 3-8)	46	21		
CC[C@H](C)[C@H](NC(=O)[C@@H]1CCCN1C(=O)CNC(=O)[C@H](Cc1ccccc1)NC(=O)[C@H](CC(N)=O)NC(=O)[C@H](CC(N)=O)NC(=O)[C@H](CO)NC(=O)[C@H](CO)NC(=O)[C@H](Cc1c[nH]cn1)NC(=O)[C@H](Cc1c[nH]cn1)NC(=O)[C@H](CC(C)C)NC(=O)[C@H](Cc1ccccc1)NC(=O)[C@H](CCC(=O)O)NC(=O)[C@H](C)NC(=O)[C@H](CC(C)C)NC(=O)[C@H](CCCNC(=N)N)NC(=O)[C@H](CCC(N)=O)NC(=O)[C@@H](NC(=O)[C@H](C)NC(=O)[C@@H]1CSSC[C@H](NC(=O)[C@H](Cc2c[nH]cn2)NC(=O)[C@H](Cc2c[nH]cn2)NC(=O)[C@H](Cc2c[nH]cn2)NC(=O)CC[C@H](NC(=O)CCCCCCCCCCCCCCCCCCC(=O)O)C(=O)O)C(=O)N[C@@H](CCCNC(=N)N)C(=O)N[C@@H]([C@@H](C)O)C(=O)N[C@@H](C)C(=O)N[C@@H]([C@@H](C)O)C(=O)N1)[C@@H](C)O)C(=O)N[C@@H](CC(C)C)C(=O)N1CCC[C@H]1C(=O)N1CCC[C@H]1C(=O)N[C@H](C(=O)N[C@@H](CC(N)=O)C(=O)N[C@H](C(=O)NCC(=O)N[C@@H](CO)C(=O)N[C@@H](CC(N)=O)C(=O)N[C@H](C(=O)N[C@@H](Cc1ccc(O)cc1)C(N)=O)[C@@H](C)O)C(C)C)[C@@H](C)O [Example 22, N-alpha-[(S)-4-Carboxy-4-(19-carboxynonadecanoylamino)butyryl]-His-His-[His1,Arg3,Glu14,His17]-pramlintide] ({C20 diacid-γGlu}-HHHCRTATCATQRLAEFLHHSSNNFGPILPPTNVGSNTY-NH2; disulfide 4-9 (inferred))	26	5		
CC[C@H](C)[C@H](NC(=O)[C@@H]1CCCN1C(=O)CNC(=O)[C@H](Cc1ccccc1)NC(=O)[C@H](CC(N)=O)NC(=O)[C@H](CC(N)=O)NC(=O)[C@H](CO)NC(=O)[C@H](CO)NC(=O)[C@H](Cc1c[nH]cn1)NC(=O)[C@H](Cc1c[nH]cn1)NC(=O)[C@H](CC(C)C)NC(=O)[C@H](Cc1ccccc1)NC(=O)[C@H](CCC(=O)O)NC(=O)[C@H](C)NC(=O)[C@H](CC(C)C)NC(=O)[C@H](CCCNC(=N)N)NC(=O)[C@H](CCC(N)=O)NC(=O)[C@@H](NC(=O)[C@H](C)NC(=O)[C@@H]1CSSC[C@H](NC(=O)[C@H](CCCCN)NC(=O)[C@H](CCC(=O)O)NC(=O)CC[C@H](NC(=O)CCCCCCCCCCCCCCCCC(=O)O)C(=O)O)C(=O)N[C@@H](CC(N)=O)C(=O)N[C@@H]([C@@H](C)O)C(=O)N[C@@H](C)C(=O)N[C@@H]([C@@H](C)O)C(=O)N1)[C@@H](C)O)C(=O)N[C@@H](CC(C)C)C(=O)N1CCC[C@H]1C(=O)N1CCC[C@H]1C(=O)N[C@H](C(=O)N[C@@H](CC(N)=O)C(=O)N[C@H](C(=O)NCC(=O)N[C@@H](CO)C(=O)N[C@@H](CC(N)=O)C(=O)N[C@H](C(=O)N[C@@H](Cc1ccc(O)cc1)C(N)=O)[C@@H](C)O)C(C)C)[C@@H](C)O [Example 42, N-alpha-[(S)-4-Carboxy-4-(17-carboxyheptadecanoylamino)butyryl]-Glu-[Glu14,His17]-pramlintide] ({C18 diacid-γGlu}-EKCNTATCATQRLAEFLHHSSNNFGPILPPTNVGSNTY-NH2; disulfide 3-8)	45	5		
CC[C@H](C)[C@H](NC(=O)[C@@H]1CCCN1C(=O)CNC(=O)[C@H](Cc1ccccc1)NC(=O)[C@H](CC(N)=O)NC(=O)[C@H](CC(N)=O)NC(=O)[C@H](CO)NC(=O)[C@H](CO)NC(=O)[C@H](CCCNC(=N)N)NC(=O)[C@H](Cc1c[nH]cn1)NC(=O)[C@H](CC(C)C)NC(=O)[C@H](Cc1ccccc1)NC(=O)[C@H](CCC(=O)O)NC(=O)[C@H](C)NC(=O)[C@H](CC(C)C)NC(=O)[C@H](CCCNC(=N)N)NC(=O)[C@H](CCC(N)=O)NC(=O)[C@@H](NC(=O)[C@H](C)NC(=O)[C@@H]1CSSC[C@H](NC(=O)[C@H](Cc2c[nH]cn2)NC(=O)CC[C@H](NC(=O)CCCCCCCCCCCCCCCCCCC(=O)O)C(=O)O)C(=O)N[C@@H](CC(N)=O)C(=O)N[C@@H]([C@@H](C)O)C(=O)N[C@@H](C)C(=O)N[C@@H]([C@@H](C)O)C(=O)N1)[C@@H](C)O)C(=O)N[C@@H](CC(C)C)C(=O)N1CCC[C@H]1C(=O)N1CCC[C@H]1C(=O)N[C@H](C(=O)N[C@@H](CC(N)=O)C(=O)N[C@H](C(=O)NCC(=O)N[C@@H](CO)C(=O)N[C@@H](CC(N)=O)C(=O)N[C@H](C(=O)N[C@@H](Cc1ccc(O)cc1)C(N)=O)[C@@H](C)O)C(C)C)[C@@H](C)O [Example 1, N-alpha-[(S)-4-Carboxy-4-(19-carboxynonadecanoylamino)butyryl]-[His1,Glu14,His17,Arg18]-pramlintide] ({C20 diacid-γGlu}-HCNTATCATQRLAEFLHRSSNNFGPILPPTNVGSNTY-NH2; disulfide 2-7 (inferred); C-terminus assumed)	50	45	93	92
CC[C@H](C)[C@H](NC(=O)[C@@H]1CCCN1C(=O)CNC(=O)[C@H](Cc1ccccc1)NC(=O)[C@H](CC(N)=O)NC(=O)[C@H](CC(N)=O)NC(=O)[C@H](CO)NC(=O)[C@H](CO)NC(=O)[C@H](Cc1c[nH]cn1)NC(=O)[C@H](Cc1c[nH]cn1)NC(=O)[C@H](CC(C)C)NC(=O)[C@H](Cc1ccccc1)NC(=O)[C@H](CCC(=O)O)NC(=O)[C@H](C)NC(=O)[C@H](CC(C)C)NC(=O)[C@H](CCCNC(=N)N)NC(=O)[C@H](CCC(N)=O)NC(=O)[C@@H](NC(=O)[C@H](C)NC(=O)[C@@H]1CSSC[C@H](NC(=O)[C@H](CCCCN)NC(=O)CC[C@H](NC(=O)CCCCCCCCCCCCCCCCC(=O)O)C(=O)O)C(=O)N[C@@H](CC(N)=O)C(=O)N[C@@H]([C@@H](C)O)C(=O)N[C@@H](C)C(=O)N[C@@H]([C@@H](C)O)C(=O)N1)[C@@H](C)O)C(=O)N[C@@H](CC(C)C)C(=O)N1CCC[C@H]1C(=O)N1CCC[C@H]1C(=O)N[C@H](C(=O)N[C@@H](CC(N)=O)C(=O)N[C@H](C(=O)NCC(=O)N[C@@H](CO)C(=O)N[C@@H](CC(N)=O)C(=O)N[C@H](C(=O)N[C@@H](Cc1ccc(O)cc1)C(N)=O)[C@@H](C)O)C(C)C)[C@@H](C)O [Example 46, N-alpha-[(S)-4-Carboxy-4-(17-carboxyheptadecanoylamino)butyryl]-[Glu14,His17]-pramlintide] ({C18 diacid-γGlu}-KCNTATCATQRLAEFLHHSSNNFGPILPPTNVGSNTY-NH2; disulfide 2-7 (inferred); C-terminus assumed)	54	27		
